Values belong to the compound of their own block, whether it stands above or below them. Active and inactive are the calls of the source. The rule behind the calls is not given here.
Legend:
Type in all cases: functional
Platelet [1] = assay: (§1) Antiplatelet activity in human platelet-rich plasma assessed as inhibition of collagen-induced aggregation at 100 uM incubated for 5 mins prior to collagen-challenge measured for 3 mins by turbidrometric analysis relative to control
Platelet [2] = assay: Antiplatelet activity in human platelet-rich plasma assessed as inhibition of arachidonic acid-induced aggregation at 100 uM incubated for 5 mins prior to arachidonic acid-challenge measured for 3 mins by turbidrometric analysis relative to control
[3] = as §1
[4] = Antiplatelet activity in human platelet-rich plasma assessed as inhibition of arachidonic acid-induced aggregation incubated for 5 mins prior to arachidonic acid-challenge measured for 3 mins by turbidrometric analysis

SMILES: Cc1cccc(N2CCN(C(=O)/C=C/c3cn(-c4ccccc4)nc3-c3ccncc3)CC2)c1C
inhibition (Platelet [1]): inactive
inhibition (Platelet [2]): inactive

SMILES: COc1ccc(CNC(=O)/C=C/c2cn(-c3ccccc3)nc2-c2ccncc2)cc1
inhibition (Platelet [1]): inactive
inhibition (Platelet [2]): inactive

SMILES: O=C(/C=C/c1cn(-c2ccccc2)nc1-c1ccncc1)N1CCC(Cc2ccccc2)CC1
inhibition (Platelet [1]): inactive
inhibition (Platelet [2]): inactive

SMILES: O=C(/C=C/c1cn(-c2ccccc2)nc1-c1ccncc1)N1CCN(C(=O)c2ccco2)CC1
inhibition at 100 µM [3]: 50%
inhibition (Platelet [2]): inactive

SMILES: O=C(/C=C/c1cn(-c2ccccc2)nc1-c1ccncc1)N1CCN(C(=O)C2CCCO2)CC1 (stereo not drawn)
inhibition at 100 µM [3]: 68.9%
inhibition (Platelet [2]): inactive

SMILES: O=C(/C=C/c1cn(-c2ccccc2)nc1-c1ccncc1)N1CCN(c2ccc(C(F)(F)F)cc2)CC1
inhibition at 100 µM [3]: 25%
inhibition (Platelet [2]): inactive

SMILES: O=C(O)/C=C/c1cn(-c2ccccc2)nc1-c1ccncc1
inhibition (Platelet [1]): inactive
inhibition (Platelet [2]): inactive

SMILES: COc1ccccc1N1CCN(C(=O)/C=C/c2cn(-c3ccccc3)nc2-c2ccncc2)CC1
inhibition (Platelet [1]): inactive
inhibition (Platelet [2]): inactive

IC50 [4]: 30.3 µM
SMILES: O=C(/C=C/c1cn(-c2ccccc2)nc1-c1ccncc1)NC1CCCCC1
inhibition at 100 µM [3]: 71.8%

SMILES: O=C(/C=C/c1cn(-c2ccccc2)nc1-c1ccncc1)N1CCCCC1
inhibition (Platelet [2]): Active

SMILES: COc1ccc(N2CCN(C(=O)/C=C/c3cn(-c4ccccc4)nc3-c3ccncc3)CC2)c(OC)c1OC
inhibition (Platelet [1]): inactive
inhibition (Platelet [2]): inactive

SMILES: O=C(/C=C/c1cn(-c2ccccc2)nc1-c1ccncc1)N1CCN(c2cccc(Cl)c2)CC1
inhibition (Platelet [1]): inactive
inhibition (Platelet [2]): inactive

SMILES: O=C(/C=C/c1cn(-c2ccccc2)nc1-c1ccncc1)N1CCN(c2ccc(Cl)cc2)CC1
inhibition (Platelet [1]): inactive
inhibition (Platelet [2]): inactive

SMILES: O=C(/C=C/c1cn(-c2ccccc2)nc1-c1ccncc1)N1CCN(c2ncccn2)CC1
inhibition at 100 µM [3]: 73.1%
inhibition (Platelet [2]): inactive

SMILES: O=C(/C=C/c1cn(-c2ccccc2)nc1-c1ccncc1)N1CCOCC1
inhibition (Platelet [2]): Active

SMILES: Cc1ccc(N2CCN(C(=O)/C=C/c3cn(-c4ccccc4)nc3-c3ccncc3)CC2)cc1
inhibition (Platelet [1]): inactive
inhibition (Platelet [2]): inactive

IC50 [4]: 20.2 µM
SMILES: O=C(/C=C/c1cn(-c2ccccc2)nc1-c1ccncc1)NCc1ccccc1
inhibition at 100 µM [3]: 54.9%

SMILES: O=C(/C=C/c1cn(-c2ccccc2)nc1-c1ccncc1)NC1CC1
inhibition (Platelet [1]): inactive
inhibition (Platelet [2]): inactive

SMILES: O=C(/C=C/c1cn(-c2ccccc2)nc1-c1ccncc1)N1CCN(CCOCCO)CC1
inhibition (Platelet [1]): inactive
inhibition (Platelet [2]): inactive

SMILES: CCOc1ccccc1N1CCN(C(=O)/C=C/c2cn(-c3ccccc3)nc2-c2ccncc2)CC1
inhibition at 100 µM [3]: 42%
inhibition (Platelet [2]): inactive

IC50 [4]: 7.7 µM
SMILES: CC(=O)Oc1ccccc1C(=O)O [ASPIRIN]

SMILES: O=C(/C=C/c1cn(-c2ccccc2)nc1-c1ccncc1)N1CCN(c2ccncc2)CC1
inhibition at 100 µM [3]: 82.5%
inhibition (Platelet [2]): inactive

SMILES: O=C(/C=C/c1cn(-c2ccccc2)nc1-c1ccncc1)N1CCN(c2ccccc2)CC1
inhibition (Platelet [1]): inactive
inhibition (Platelet [2]): inactive

Source: ChEMBL document CHEMBL3046645, “Novel 1,3-diarylpyrazole acrylamides: synthesis, antiplatelet activity screening, and in silico evaluation studies” (Med Chem Res, 2013)
